Measured values taken from ChEMBL document CHEMBL3137667, “[Drug-induced liver injury; fourteenth updated edition of the bibliographic database of liver injuries and related drugs]” (Gastroenterol Clin Biol, 2004).

Experiments:
[1] = human
[2] = human; remark: listed apart in the source
[3] = human; remark: listed apart in the source
[4] = human; remark: listed apart in the source
[5] = Highest frequency of acute liver toxicity observed during clinical trials, expressed as a percentage. [column '% AIGUE' in source]; conditions: human
[6] = human, serum
[7] = Presence of at least one case with successful reintroduction. [column 'REINT' in source]; conditions: human
[8] = human, serum, 4383 h
[9] = human; remark: listed apart in the source
[10] = human; remark: listed apart in the source
[11] = Times to onset, minimal and maximal, observed in the indexed observations. [column 'DELAI' in source]; conditions: human
[12] = human; remark: listed apart in the source
[13] = Comments (NB not yet translated). [column 'COMMENTAIRES' in source]; conditions: human
[14] = human; remark: listed apart in the source
[15] = Proposed mechanism(s) of liver damage. [column 'MEC' in source]; conditions: human
[16] = Highest frequency of moderate liver toxicity observed during clinical trials, expressed as a percentage. [column '% BIOL' in source]; conditions: human
[17] = human; remark: listed apart in the source
[18] = human, serum; remark: listed apart in the source
[19] = human; remark: listed apart in the source
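Throughout, for Hepatotoxicity (association with vascular disease): count of indexed literature references reporting vascular liver injury in humans, e.g. peliosis hepatitis, hepatic veno-occlusive disease or Budd-Chiari syndrome.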
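Throughout, for Hepatotoxicity (benign tumour): value is a count of indexed literature references citing a benign tumour confirmed by histopathology.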
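Throughout, for Hepatotoxicity (choleostasis): human cholestatic liver injury, shown by histopathology or by peak ALT or AST elevation over alkaline phosphatase ratio below 2, value counts indexed literature reports.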
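Throughout, for Hepatotoxicity (chronic liver disease): chronic liver injury confirmed by histopathology or persistently raised serum aminotransferase activity beyond 6 months, value given as the count of indexed literature references.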
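Throughout, for Hepatotoxicity (cirrhosis): value is a count of indexed literature references reporting cirrhosis confirmed by histopathology.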
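Throughout, for Hepatotoxicity (cytolytic): human cytolytic liver injury, shown by histopathology or by a ratio above 5 of peak ALT or AST elevation to alkaline phosphatase elevation, value counts indexed references.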
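Throughout, for Hepatotoxicity (granulomatous hepatitis): value is a count of indexed literature references reporting granulomatous liver disease confirmed by histopathology.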
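Throughout, for Hepatotoxicity (malignant tumour): malignant tumour confirmed by histopathology, value gives the count of indexed literature references reporting it.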
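Throughout, for Hepatotoxicity (severe hepatitis): human clinical data: severe hepatitis, meaning potentially life-threatening liver failure or clinically observed cases, the value counts how many indexed literature references report it.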
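Throughout, for Hepatotoxicity (steatosis): steatosis confirmed by histopathology, value is the count of indexed references.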

Compound	Hepatotoxicity (cytolytic) [1]	Hepatotoxicity (animal toxicity known) [2]	Hepatotoxicity (benign tumour) [3]	Hepatotoxicity (choleostasis) [4]	Hepatotoxicity (acute) [5] [%]	Hepatotoxicity (acute) [6]	Hepatotoxicity (successful reintroduction) [7]	Hepatotoxicity (chronic liver disease) [8]	Hepatotoxicity (granulomatous hepatitis) [9]	Hepatotoxicity (severe hepatitis) [10]	Hepatotoxicity (time to onset) [11]	Hepatotoxicity (steatosis) [12]	Hepatotoxicity (comment) [13]	Hepatotoxicity (cirrhosis) [14]	Hepatotoxicity (mechanism) [15]	Hepatotoxicity (moderate) [16] [%]	Hepatotoxicity (association with vascular disease) [17]	Hepatotoxicity (moderate) [18]	Hepatotoxicity (malignant tumour) [19]	Hepatotoxicity (cytolytic) ([1]; Liver)	also measured
COC(=O)Nc1nc2ccc(C(=O)c3ccccc3)cc2[nH]1 [MEBENDAZOLE]	3	yes	0	0	0	3	yes	0	1	0	2 days - 2 months	0	AC_ANTI-ML I/CIMETIDINE	0	Allergic, Dose-dependant	30	0	13	0		
O=P1(N(CCCl)CCCl)NCCCO1 (centres undefined) [CYCLOPHOSPHAMIDE ANHYDROUS]		yes	0			18	yes	0			2 days - 21 years	0	CHC HNR MVO REACTIVATION_HVB	0			44	16	4	15	Hepatotoxicity (choleostasis) ([4]; Liver): 2; Hepatotoxicity (acute) ([5]; Liver): 2.6%; Hepatotoxicity (granulomatous hepatitis) ([9]; Liver): 0; Hepatotoxicity (severe hepatitis) ([10]; Liver): 11; Hepatotoxicity (mechanism) ([15]; Liver): Dose-dependant; Hepatotoxicity (moderate) ([16]; Liver): 85%
COC(F)(F)C(Cl)Cl [METHOXYFLURANE]	27	yes	0	0	0	32	yes	0	0	19	1 day - 20 days	3	RC/HALOTHANE	0	Allergic, Reactive metabolite	0	0	8	0		
CCCCc1oc2ccccc2c1C(=O)c1cc(I)c(OCCN(CC)CC)c(I)c1 [AMIODARONE]		yes	0			34	yes	8			1 day - 10 years	4	RC/AJMALINE #S.REYE	17	Allergic, Dose-dependant		0	55	0	20	Hepatotoxicity (choleostasis) ([4]; Liver): 6; Hepatotoxicity (acute) ([5]; Liver): 6%; Hepatotoxicity (granulomatous hepatitis) ([9]; Liver): 2; Hepatotoxicity (severe hepatitis) ([10]; Liver): 14; Hepatotoxicity (moderate) ([16]; Liver): 55%
CNC(=O)OCc1cccc(COC(=O)NC)n1 [PYRICARBATE]	8	A	0	4	0.7	9	yes	0	0	3	2 weeks - 6 months	0	AC_ANTI-MFR/-ML	0	Allergic	10	0	4	0		
CCC(=O)O[C@](Cc1ccccc1)(c1ccccc1)[C@H](C)CN(C)C [PROPOXYPHENE]	7	yes	0	20	0	21	yes	1	0	0	1 day - 1.5 years	0	CHOLANGITE	0	Allergic, Dose-dependant	14.3	0	6	0		
